Measurements published in patent US20200031920A1, “Combination Therapy for Treating Cancer” (The George Washington University, priority 2017, published 2020).
“Also recorded” adds a separate entry of the source.

Columns and labels:
Type in all cases: cell-based
[1] = test system: SKOV3 CR cells; assay: apoptosis (Annexin V and Propidium Iodide staining, cleaved PARP)
Description: FIG. 2 is an illustration showing representative flow plots (A) and a bar graph (B) of SKOV3 and SKOV3 CR cells treated with cisplatin for 48 h and analyzed for Annexin V and Propidium Iodide staining by flow cytometry (A) and quantified apoptosis percentage (B). Data are represented as mean±SD from three independent experiments performed in triplicate. **p<0.01. FIG. 23 is an illustration showing the immunoblotting for the indicated targets in SKOV3 CR cells treated with vehicle (DMSO), 3 μM LY2784544, 5 μM cisplatin, or the combination for 48 hr. FIG. 24 is an illustration showing representative flow plots of SKOV3 CR cells treated with vehicle, 3 μM LY2784544, 5 μM cisplatin, or the combination (combo) for 48 hr and analyzed for Annexin V and Propidium Iodide staining by flow cytometry. Since cisplatin exerts its anticancer effect mainly through its ability to cause DNA damage, resulting in apoptosis, the apoptotic cells in both SKOV3 and SKOV CR cells were measured using Annexin V and Propidium Iodide staining. […] To test whether SKOV3 CR cells are resistant to cisplatin-induced apoptosis in vivo, both SKOV3 and SKOV3 CR cells were injected into nude mice to form xenograft tumors. Once the tumor size reached 100-150 mm^3, cisplatin was given to mice by intraperitoneal injections twice a week for 2 weeks. Three days after treatment, the apoptosis in tumors was examined by TUNEL staining. […] Currently, carboplatin is a more commonly used platinum drug employed clinically to treat ovarian patients. Ozols et al., J Clin Oncol 21: 3194-3200 (2003). Thus, it was tested whether SKOV3 CR cells are also resistant to carboplatin (Sigma-Aldrich). The effects of LY2784544 on the JAK2/STAT5 signaling pathway in both SKOV3 and SKOV3 CR cells were examined.

[2] = test system: phosphorylation of JAK2 (Y1007/1008) and STAT5 (Y694); assay: western blot of JAK2/STAT5 signaling
Description: FIG. 22 is an illustration showing that LY2784544 down-regulates JAK2/STAT5 signaling in SKOV3 CR cells. Cells were treated with the indicated concentrations of LY2784544 for 48 hr.
FIG. 23 is an illustration showing the immunoblotting for the indicated targets in SKOV3 CR cells treated with vehicle (DMSO), 3 μM LY2784544, 5 μM cisplatin, or the combination for 48 hr.
To investigate the molecular mechanism by which the JAK2-mediated pathway regulates cisplatin resistance of ovarian cancer, the activation of the JAK2-mediated pathway in paired sensitive cell line (SKOV3, IGROV1, PEO1) and resistant cell lines (SKOV3 CR, IGROV1 CR, PEO4) was examined by western blot. Compared to cisplatin sensitive cells SKOV3 or IGROV1, the JAK2 protein levels are not changed in cisplatin resistant cells SKOV3 CR, IGROV1 CR, or PEO4.
The effects of LY2784544 on the JAK2/STAT5 signaling pathway in both SKOV3 and SKOV3 CR cells were examined.

[3] = test system: SKOV3 cells; assay: cell viability / proliferation (SRB) assay, SKOV3 parental cells
Description: (§1) FIG. 1 is a line graph showing the proliferation of SKOV3 parental and SKOV3 CR cells treated with increasing concentrations of cisplatin for five days. Data are represented as mean±SD from three independent experiments performed in triplicate. Indicated IC50 values represent the mean of two independent experiments performed in triplicate.
(§2) FIG. 13 is a line graph showing the proliferation of SKOV3 parental and SKOV3 CR cells treated with increasing concentrations of cisplatin and 0.4 μM LY2784544 for five days. Data are represented as mean±SD from three independent experiments performed in triplicate.
(§3) Cisplatin resistant ovarian cancer cell lines were generated using procedures as described previously. Jazaeri et al., Mol Cancer Ther 12: 1958-1967 (2013). Ovarian cancer cells SKOV3 were cultured in the medium with cisplatin (Sigma-Aldrich) for three weeks, followed by release to cisplatin-free medium for another three weeks. In the next cycle, the cisplatin treatment was repeated in the medium with an increased concentration of cisplatin. After six-cycle treatment, cells were identified that were able to grow in the medium with a high concentration of cisplatin. These cisplatin resistant cells were named as SKOV3 CR (FIG. 1).
(§4) The results obtained from combinational HTS were confirmed by testing whether LY2784544 overcomes cisplatin resistance in ovarian cancer cells using multiple assays. […] The Combination index (CI), which quantitatively describes the interaction between drugs including synergism (CI<1), additive effect (CI=1), and antagonism (CI>1), was calculated.

[4] = test system: SKOV3 CR cells; assay: cell viability / proliferation (SRB) assay, cisplatin resistant SKOV3 CR cells
Description: as §1, §2, §3, §4

[5] = test system: IGROV1 CR cells; assay: cell proliferation assay, cisplatin resistant IGROV1 CR cells
From the text: as §1, with “60” for “1”, “IGROV1” for “SKOV3”, “5 days (left).” for “five days.”
FIG. 61 is a bar graph showing the synergistic effects of LY2784544 and cisplatin in IGROV1 CR cells (right). CI values are presented above the bars. CI<1 indicates synergism, […] indicates additive effect, and CI>1 indicates antagonism.
Using a similar approach as described in FIG. 1, another cisplatin resistant ovarian cancer cell line IGROV1 CR was raised from its cisplatin sensitive parental cell IGROV1 cells. […] The cell proliferation of IGROV1 CR cells treated with cisplatin, LY2784544 or both LY2784544 and cisplatin was examined.

[6] = test system: PEO4 cells; assay: cell proliferation assay, PEO4 cells
From the text: as §1, with “63” for “1”, “PEO1” for “SKOV3 parental”, “PEO4” for “SKOV3 CR”, “5” for “five”
FIG. 64 is a bar graph showing the synergistic effects of LY2784544 and cisplatin in PEO4 cells. CI values are presented above the bars. CI<1 indicates synergism, CI=1 indicates additive effect, and CI>1 indicates antagonism.
(§5) For ovarian cancer, recurrence more than 12 months after initial chemotherapy was considered as platinum sensitive. PEO4 was derived from the patient 10 months later when they had progressive disease and had become cisplatin resistant.

[7] = test system: PEO1 cells; assay: cell proliferation assay, PEO1 cells; details: 5 days
From the text: as §1, with “63” for “1”, “PEO1” for “SKOV3 parental”, “PEO4” for “SKOV3 CR”, “5” for “five”
as §5

[8] = SKOV3 CR cells, 3 μM LY2784544 plus 5 μM cisplatin, 48 hr

With `Cc1cc(Nc2cc(CN3CCOCC3)c3nc(C)c(Cc4ccc(Cl)cc4F)n3n2)n[nH]1` [LY2784544] the “apoptosis (cleaved PARP), single agent” value ([1]; SKOV3 CR cells, 3 μM LY2784544, 48 hr) was “did not cause apoptosis”, the “apoptosis (cleaved PARP), combination with cisplatin” value [1, 8] was “induced apoptotic cell death” and the “apoptotic cells (Annexin V and Propidium Iodide), combination with cisplatin” value [1, 8] was “significant increase of apoptotic cells”. The “phosphorylation of JAK2 and STAT5” value ([2]; both SKOV3 and SKOV3 CR cells, 48 hr) was “significantly reduced the phosphorylation of JAK2 as well as the phosphorylation of STAT5”, the “medium CI (combination index)” value ([3]; combination with cisplatin, SKOV3 cells, CI<1 synergism) was 0.93 and the “effect on cell proliferation of SKOV3” value ([3]; medium with cisplatin or without cisplatin) was “did not affect the cell proliferation of SKOV3”. For the same molecule, the “cisplatin IC50 shift ability (comparison of the three hits)” value ([4]; SKOV3 CR cells) was “better cisplatin IC50 shift ability than MLN4924 or NSC319726”, the “sensitization of SKOV3 CR cells to cisplatin (proliferation)” value ([4]; combination with cisplatin at different doses, FIG. 13: 0.4 μM LY2784544, five days) was “significantly increased the sensitivity of SKOV3 CR cells to cisplatin; also recorded: re-sensitized SKOV3 CR cells to cisplatin” and the “medium CI (combination index)” value ([4]; combination with cisplatin, SKOV3 CR cells, CI<1 synergism) was 0.69. For the same molecule, the “medium CI (combination index)” value ([5]; combination with cisplatin, IGROV1 CR cells) was 0.71 and the “medium CI (combination index)” value ([6]; combination with cisplatin, PEO4 cells) was 0.34.

`N.N.[Cl][Pt][Cl]` [cisplatin] was tested, and the “apoptosis, SKOV3 versus SKOV3 CR cells” value ([1]; cisplatin for 48 h, Annexin V and Propidium Iodide staining) was “induced more apoptosis in SKOV3 cells than in SKOV3 CR cells”, the “JAK2/STAT5 signaling after cisplatin treatment” value ([2]; SKOV3 parental cells, various small doses and times of cisplatin) was “JAK2/STAT5 signaling was activated” and the IC50 ([3]; SKOV3 parental cells, 5 days) was 2000 nM. The IC50 ([4]; SKOV3 CR cells, 5 days) was 10.4 µM, the “fold increase of IC50, IGROV1 CR vs parental IGROV1” value ([5]; 5 days) was 2.9 fold and the IC50 ([5]; IGROV1 CR cells, 5 days) was 1500 nM. The IC50 [7] was 320 nM, the “fold increase of IC50, PEO4 vs PEO1” value ([6]; 5 days) was 6.2 fold and the IC50 ([6]; PEO4 cells, 5 days) was 1990 nM.
